# According to US7872014B2, “Anaplastic lymphoma kinase modulators and methods of use” (Exelixis, Inc., priority 2003, dated 2011):
# Biological target: T1, ALK (baculovirus expressed human ALK kinase domain F1098-K1410) (Homo sapiens, UniProt Q9UM73)
# T1 construct: baculovirus expressed human ALK kinase domain F1098-K1410; made in house
# Experiment: Luciferase-Coupled Chemiluminescent Kinase assay (LCCA), ALK biochemical activity
# Conditions: inhibition of ALK; mean values; 1 μM ATP, 4 μM poly-AEKY, 12 nM ALK, 2 hours ambient temperature
# Description: ALK biochemical activity was assessed using a Luciferase-Coupled Chemiluminescent Kinase assay (LCCA) format in which kinase activity was measured as the percent ATP remaining following the kinase reaction. ATP remaining after the kinase reaction was detected by luciferase-luciferin-coupled chemiluminescence.
# The reaction was initiated by mixing test compounds, 1 μM ATP, 4 μM poly-AEKY and 12 nM ALK (baculovirus expressed human ALK kinase domain F1098-K1410) in a 20 μL assay buffer ([…] pH 7.5, 10 mM MgCl2, 0.02% Triton X-100, 100 mM DTT, 2 mM MnCl2). The mixture was incubated at ambient temperature for 2 hours after which 20 μL luciferase-luciferin mix was added and the chemiluminescent signal read using a Wallac Victor^2 reader. The luciferase-luciferin mix consists of 50 mM HEPES, pH 7.8, 8.5 μg/mL oxalic acid (pH 7.8), 5 (or 50) mM DTT, 0.4% Triton X-100, 0.25 mg/mL coenzyme A, 63 μM AMP, 28 μg/mL luciferin and 40,000 units of light/mL luciferase.
# Consumption of ATP by ALK can thus be quantified and utilized as a measure of inhibition of ALK activity by compounds described herein. By employing serial dilutions of compounds to be tested, the ability of test compounds to inhibit ALK activity can be determined.
# T1 sequence (Q9UM73 1098-1410): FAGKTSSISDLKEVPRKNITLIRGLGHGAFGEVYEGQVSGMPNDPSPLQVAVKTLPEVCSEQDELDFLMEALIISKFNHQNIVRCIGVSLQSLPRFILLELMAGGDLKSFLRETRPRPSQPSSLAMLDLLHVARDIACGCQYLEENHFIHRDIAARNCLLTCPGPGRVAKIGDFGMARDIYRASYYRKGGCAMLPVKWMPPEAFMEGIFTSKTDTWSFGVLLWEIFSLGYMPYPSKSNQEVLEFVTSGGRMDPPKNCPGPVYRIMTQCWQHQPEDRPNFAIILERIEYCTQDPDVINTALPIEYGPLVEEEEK
row,Compound,IC50
1,"Cc1n[nH]c2nc(-c3ccccc3F)c3c(F)cc4c(c3c12)OCCO4 [Example 160, 6-fluoro-7-(2-fluorophenyl)-11-methyl-2,3-dihydro-9H-[1,4]dioxino[2,3-f]pyrazolo[3,4-c]isoquinoline]",100 to 999 nM
2,"COc1cc2c(-c3ccc(O)cc3)cc3[nH]nc(C)c3c2c(F)c1OC [Example 123, 4-[9-fluoro-1-methyl-7,8-bis(methyloxy)-3H-benzo[e]indazol-5-yl]phenol]",100 to 999 nM
3,"COc1c(Cl)cc2c(-c3ccc(O)cc3)nc3[nH]nc(C)c3c2c1F [Example 105, 4-[7-chloro-9-fluoro-1-methyl-8-(methyloxy)-3H-pyrazolo[3,4-c]isoquinolin-5-yl]phenol]",100 to 999 nM
4,"Cc1n[nH]c2nc(-c3ccc(N)nc3)c3c(F)cc(O)c(F)c3c12 [Example 198, 5-(6-aminopyridin-3-yl)-6,9-difluoro-1-methyl-3H-pyrazolo[3,4-c]isoquinolin-8-ol]",> 2000 nM
5,"COC[C@@H]1CCCN1CCOc1cc(F)c2c(-c3ccc(O)c(Cl)c3)nc3[nH]nc(C)c3c2c1OC [Example 232, 2-chloro-4-{6-fluoro-1-methyl-9-(methyloxy)-8-[(2-{(2S)-2-[(methyloxy)methyl]pyrrolidin-1-yl}ethyl)oxy]-3H-pyrazolo[3,4-c]isoquinolin-5-yl}phenol]",≤ 99 nM
6,"COc1cc(F)c2c(-c3ccc(O)cc3)nc3[nH]nc(C)c3c2c1F [Example 79, 4-[6,9-difluoro-1-methyl-8-(methyloxy)-3H-pyrazolo[3,4-c]isoquinolin-5-yl]phenol]",≤ 99 nM
7,"COc1c(OCCN2CCN(CC(=O)NC(C)C)CC2)cc(F)c2c(-c3ccc(O)c(Cl)c3)nc3[nH]nc(C)c3c12 [Example 235, 2-[4-(2-{[5-(3-chloro-4-hydroxyphenyl)-6-fluoro-1-methyl-9-(methyloxy)-3H-pyrazolo[3,4-c]isoquinolin-8-yl]oxy}ethyl)piperazin-1-yl]-N-(1-methylethyl)acetamide]",≤ 99 nM
8,"COc1ccc2c(-c3ccc(O)c(Cl)c3)nc3[nH]nc(C)c3c2c1OCC1CCN(C)CC1 [Example 91, 2-chloro-4-(1-methyl-8-(methyloxy)-9-{[(1-methylpiperidin-4-yl)methyl]oxy}-3H-pyrazolo[3,4-c]isoquinolin-5-yl)phenol]",≤ 99 nM
9,"COc1cc2c(-c3ccc(O)c(Cl)c3)nc3[nH]nc(C(F)(F)F)c3c2cc1OC [Example 137, 4-[7,8-bis(methyloxy)-1-(trifluoromethyl)-3H-pyrazolo[3,4-c]isoquinolin-5-yl]-2-chlorophenol]",100 to 999 nM
10,"COc1cc2c(-c3ccc(O)c(Cl)c3)nc3[nH]nc(C)c3c2cc1OCC1CCCO1 (stereo not shown) [Example 151, 2-chloro-4-{1-methyl-7-(methyloxy)-8-[(tetrahydrofuran-2-ylmethyl)oxy]-3H-pyrazolo[3,4-c]isoquinolin-5-yl}phenol]",≤ 99 nM
11,"CCOCCOc1cc2c(cc1OC)c(-c1ccc(O)c(Cl)c1)nc1[nH]nc(C)c12 [Example 162, 2-chloro-4-[8-{[2-(ethyloxy)ethyl]oxy}-1-methyl-7-(methyloxy)-3H-pyrazolo[3,4-c]isoquinolin-5-yl]phenol]",≤ 99 nM
12,"Cc1n[nH]c2nc(-c3ccc(O)c(Cl)c3)c3cc4c(cc3c12)OCCCO4 [Example 141, 2-chloro-4-(1-methyl-9,10-dihydro-3H,8H-[1,4]dioxepino[2,3-g]pyrazolo[3,4-c]isoquinolin-5-yl)phenol]",≤ 99 nM
13,"Cc1n[nH]c2nc(-c3ccc(N)cc3)c3c(F)cc(O)c(F)c3c12 [Example 193, 5-(4-aminophenyl)-6,9-difluoro-1-methyl-3H-pyrazolo[3,4-c]isoquinolin-8-ol]",1000 to 2000 nM

# Further lines, results first:
row,IC50,Compound
1,≤ 99 nM,"Cc1n[nH]c2nc(-c3ccc(O)c(Cl)c3)c3c(F)cc(O)c(F)c3c12 [Example 155, 5-(3-chloro-4-hydroxyphenyl)-6,9-difluoro-1-methyl-3H-pyrazolo[3,4-c]isoquinolin-8-ol]"
2,≤ 99 nM,"COc1cc2c(-c3ccc(O)c(Cl)c3)nc3[nH]nc(C)c3c2cc1OC1CCCC1 [Example 166, 2-chloro-4-[8-(cyclopentyloxy)-1-methyl-7-(methyloxy)-3H-pyrazolo[3,4-c]isoquinolin-5-yl]phenol]"
3,≤ 99 nM,"COc1cc2c(-c3ccc(O)cc3Cl)nc3[nH]nc(C)c3c2cc1OC [Example 96, 3-chloro-4-[1-methyl-7,8-bis(methyloxy)-3H-pyrazolo[3,4-c]isoquinolin-5-yl]phenol]"
4,≤ 99 nM,"CCN(CC)CCOc1cc2c(c(-c3ccc(O)c(Cl)c3)nc3[nH]nc(C)c32)c(F)c1OC [Example 178, 2-chloro-4-[8-{[2-(diethylamino)ethyl]oxy}-6-fluoro-1-methyl-7-(methyloxy)-3H-pyrazolo[3,4-c]isoquinolin-5-yl]phenol]"
5,≤ 99 nM,"Cc1n[nH]c2nc(-c3ccc(O)c(Cl)c3)c3c(F)cc(OC(F)F)c(F)c3c12 [Example 157, 2-chloro-4-{8-[(difluoromethyl)oxy]-6,9-difluoro-1-methyl-3H-pyrazolo[3,4-c]isoquinolin-5-yl}phenol]"
6,≤ 99 nM,"COc1c(OCCN(CCCN(C)C)CCCN(C)C)cc(F)c2c(-c3ccc(O)c(Cl)c3)nc3[nH]nc(C)c3c12 [Example 230, 4-[8-[(2-{bis[3-(dimethylamino)propyl]amino}ethyl)oxy]-6-fluoro-1-methyl-9-(methyloxy)-3H-pyrazolo[3,4-c]isoquinolin-5-yl]-2-chlorophenol]"
7,≤ 99 nM,"Cc1n[nH]c2nc(-c3ccc(O)c(Cl)c3)c3cc4c(cc3c12)OCO4 [Example 139, 2-chloro-4-(1-methyl-3H-[1,3]dioxolo[4,5-g]pyrazolo[3,4-c]isoquinolin-5-yl)phenol]"
8,≤ 99 nM,"COc1cc2c(-c3cc(Cl)c(O)cc3Cl)nc3[nH]nc(C)c3c2cc1OC [Example 85, 2,5-dichloro-4-[1-methyl-7,8-bis(methyloxy)-3H-pyrazolo[3,4-c]isoquinolin-5-yl]phenol]"
9,≤ 99 nM,"COc1c(OCCCN2CCN(C)CC2)cc(F)c2c(-c3ccc(O)c(Cl)c3)nc3[nH]nc(C)c3c12 [Example 201, 2-chloro-4-(6-fluoro-1-methyl-9-(methyloxy)-8-{[3-(4-methylpiperazin-1-yl)propyl]oxy}-3H-pyrazolo[3,4-c]isoquinolin-5-yl)phenol]"
10,≤ 99 nM,"CCN(CCOc1cc(F)c2c(-c3ccc(O)c(Cl)c3)nc3[nH]nc(C)c3c2c1OC)CCN(C)C [Example 229, 2-chloro-4-[8-({2-[[2-(dimethylamino)ethyl](ethyl)amino]ethyl}oxy)-6-fluoro-1-methyl-9-(methyloxy)-3H-pyrazolo[3,4-c]isoquinolin-5-yl]phenol]"
11,≤ 99 nM,"COc1c(OCCN2CCN(C)CC2)cc(F)c2c(-c3ccc(O)c(Cl)c3)nc3[nH]nc(C)c3c12 [Example 197, 2-chloro-4-(6-fluoro-1-methyl-9-(methyloxy)-8-{[2-(4-methylpiperazin-1-yl)ethyl]oxy}-3H-pyrazolo[3,4-c]isoquinolin-5-yl)phenol]"
12,≤ 99 nM,"COc1c(OCCN2CCN(c3ccccn3)CC2)cc(F)c2c(-c3ccc(O)c(Cl)c3)nc3[nH]nc(C)c3c12 [Example 238, 2-chloro-4-(6-fluoro-1-methyl-9-(methyloxy)-8-{[2-(4-pyridin-2-ylpiperazin-1-yl)ethyl]oxy}-3H-pyrazolo[3,4-c]isoquinolin-5-yl)phenol]"
13,≤ 99 nM,"COc1c(OC)c(F)c2c(c(-c3cc(Cl)c(O)cc3F)nc3[nH]nc(C)c32)c1OC [Example 154, 2-chloro-5-fluoro-4-[9-fluoro-1-methyl-6,7,8-tris(methyloxy)-3H-pyrazolo[3,4-c]isoquinolin-5-yl]phenol]"
14,≤ 99 nM,"CCc1c(OC)ccc2c(-c3ccc(O)c(Cl)c3)nc3[nH]nc(C)c3c12 [Example 168, 2-chloro-4-[9-ethyl-1-methyl-8-(methyloxy)-3H-pyrazolo[3,4-c]isoquinolin-5-yl]phenol]"
15,≤ 99 nM,"COc1c(OCCN2CCN(C)CC2)cc2c(c(-c3ccc(O)c(Cl)c3)nc3[nH]nc(C)c32)c1F [Example 194, 2-chloro-4-(6-fluoro-1-methyl-7-(methyloxy)-8-{[2-(4-methylpiperazin-1-yl)ethyl]oxy}-3H-pyrazolo[3,4-c]isoquinolin-5-yl)phenol]"
16,≤ 99 nM,"COc1ccc2c(-c3ccc(O)cc3)nc3[nH]nc(C)c3c2c1OCC1CCN(C)CC1 [Example 64, 4-(1-methyl-8-(methyloxy)-9-{[(1-methylpiperidin-4-yl)methyl]oxy}-3H-pyrazolo[3,4-c]isoquinolin-5-yl)phenol]"
17,≤ 99 nM,"COCCOc1cc2c(cc1OC)c(-c1ccc(O)cc1F)nc1[nH]nc(C)c12 [Example 125, 3-fluoro-4-(1-methyl-7-(methyloxy)-8-{[2-(methyloxy)ethyl]oxy}-3H-pyrazolo[3,4-c]isoquinolin-5-yl)phenol]"
18,≤ 99 nM,"COc1c(OC[C@H](N)C(C)C)cc(F)c2c(-c3ccc(O)c(Cl)c3)nc3[nH]nc(C)c3c12 [Example 208, 4-[8-{[(2R)-2-amino-3-methylbutyl]oxy}-6-fluoro-1-methyl-9-(methyloxy)-3H-pyrazolo[3,4-c]isoquinolin-5-yl]-2-chlorophenol]"
